Patent US8975417B2, “Pyrazolopyrrolidine derivatives and their use in the treatment of disease” (Novartis AG, priority 2013, dated 2015)

Tests used:
K-562 cells = assay: Cell growth inhibition assay (CellTiter-Glo), K-562; type: cell-based, human; details: Homo sapiens, K562, read-out: K-562 TGI
Outline: (§1)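 CTG luminescence (cellular ATP) after compound treatment; values background- and day 0-corrected, vehicle (0.1% DMSO) = 100%, medium only = −100%. Dose range: 3-fold dilutions from 10 μM. IC50/TGI by 4-parameter fit.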

His-Brd2(60-472) = His-Brd2(60-472) (Homo sapiens (Human), UniProt P25440); assay: TR-FRET in-vitro binding assay for BRD2; details: biochemical
Outline: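 His-tagged BRD2(60-472), BRD3(20-477) or BRD4(44-477), 45 nM in dispensing solution, with 60 nM tetra-acetylated histone H4 peptide (AcK5/8/12/16) in dispensing solution; HEPES pH 7.5, 50 mM NaCl, 0.1% BSA, 30 °C, 35 min. Eu-anti-His6 antibody plus streptavidin-APC added for TR-FRET read-out; 8-point compound dilutions.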

THP-1 cells = assay: Cell growth inhibition assay (CellTiter-Glo), THP-1; type: cell-based; details: Homo sapiens, read-out: THP-1 TGI
Outline: as §1

[1] = target: His-CREBBP (1081-1197) bromodomain (Homo sapiens (Human), UniProt Q92793); assay: AlphaScreen in-vitro binding assay for CREBBP; details: biochemical
Outline: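 Ni-chelate acceptor and streptavidin donor beads (45 µg/mL each, in 50 mM HEPES pH 7.5, 150 mM NaCl, 0.02% BSA) were then added for 60 min at room temperature. IC50 came from 8-point non-linear regression.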

MV-4-11 cells = assay: Cell growth inhibition assay (CellTiter-Glo), MV-4-11; type: cell-based; details: Homo sapiens, MV4-11, read-out: MV-4-11 TGI
Outline: as §1

His-Brd2(60-472), sequence (P25440 60-472): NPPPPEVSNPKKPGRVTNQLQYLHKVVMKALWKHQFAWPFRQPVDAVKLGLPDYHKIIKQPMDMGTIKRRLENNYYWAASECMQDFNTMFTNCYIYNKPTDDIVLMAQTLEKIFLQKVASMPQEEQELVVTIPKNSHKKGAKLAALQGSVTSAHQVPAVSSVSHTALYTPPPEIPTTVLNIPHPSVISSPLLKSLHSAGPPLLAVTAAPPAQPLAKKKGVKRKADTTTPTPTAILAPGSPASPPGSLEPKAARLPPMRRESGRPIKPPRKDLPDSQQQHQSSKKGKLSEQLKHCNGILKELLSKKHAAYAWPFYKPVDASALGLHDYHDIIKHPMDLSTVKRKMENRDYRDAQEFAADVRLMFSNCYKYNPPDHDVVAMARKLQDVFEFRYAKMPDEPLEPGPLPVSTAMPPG
His-CREBBP (1081-1197) bromodomain, sequence (Q92793 1081-1197): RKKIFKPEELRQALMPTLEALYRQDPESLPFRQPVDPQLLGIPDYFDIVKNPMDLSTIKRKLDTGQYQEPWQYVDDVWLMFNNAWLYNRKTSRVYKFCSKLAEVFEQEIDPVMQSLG

SMILES: Cc1ncccc1-n1nc2c(c1C)C(c1ccc(Cl)cc1)N(c1cc(C)c(=O)n(C)c1)C2=O (stereo not drawn) [Example 81, 4-(4-chlorophenyl)-5-(1,5-dimethyl-6-oxo-1,6-dihydropyridin-3-yl)-3-methyl-2-(2-methylpyridin-3-yl)-4,5-dihydropyrrolo[3,4-c]pyrazol-6(2H)-one]
- IC (total growth inhibition) (K-562 cells): > 10 µM
- IC50 (His-Brd2(60-472)): 120 nM
- IC (total growth inhibition) (THP-1 cells): 0.422 µM
- IC50 [1]: 920 nM
- IC (total growth inhibition) (MV-4-11 cells): 0.13 µM

SMILES: Cc1ncccc1-n1nc(C)c2c1C(=O)N(c1cc(C)c(=O)n(C)c1)C2c1ccc(Cl)cc1 (stereo not drawn) [Example 82, 4-(4-chlorophenyl)-5-(1,5-dimethyl-6-oxo-1,6-dihydropyridin-3-yl)-3-methyl-1-(2-methylpyridin-3-yl)-4,5-dihydropyrrolo[3,4-c]pyrazol-6(1H)-one]
- IC (total growth inhibition) (K-562 cells): > 10 µM
- IC50 (His-Brd2(60-472)): 97 nM
- IC (total growth inhibition) (THP-1 cells): 0.406 µM
- IC50 [1]: 6500 nM
- IC (total growth inhibition) (MV-4-11 cells): 0.139 µM

SMILES: Cc1nn(-c2cncn2C)c2c1C(c1ccc(Cl)cc1)N(c1cc(C)c(=O)n(C)c1)C2=O (stereo not drawn) [Example 83, 4-(4-chlorophenyl)-5-(1,5-dimethyl-6-oxo-1,6-dihydropyridin-3-yl)-3-methyl-1-(1-methyl-1H-imidazol-5-yl)-4,5-dihydropyrrolo[3,4-c]pyrazol-6(1H)-one]
- IC (total growth inhibition) (K-562 cells): > 10 µM
- IC50 (His-Brd2(60-472)): 120 nM
- IC (total growth inhibition) (THP-1 cells): 0.396 µM
- IC50 [1]: 6100 nM
- IC (total growth inhibition) (MV-4-11 cells): 0.145 µM

SMILES: CCc1nn(C2CC2)c2c1C(c1ccc(Cl)cc1)N(c1cc(OC)c3nnc(C)n3c1)C2=O (stereo not drawn) [Example 84, 4-(4-chlorophenyl)-1-cyclopropyl-3-ethyl-5-(8-methoxy-3-methyl-[1,2,4]triazolo[4,3-a]pyridin-6-yl)-4,5-dihydropyrrolo[3,4-c]pyrazol-6(1H)-one]
- IC (total growth inhibition) (K-562 cells): > 10 µM
- IC50 (His-Brd2(60-472)): 37 nM
- IC (total growth inhibition) (THP-1 cells): 0.163 µM
- IC50 [1]: > 37000 nM
- IC (total growth inhibition) (MV-4-11 cells): 0.098 µM

SMILES: CCc1nn(CCOC)c2c1C(c1ccc(Cl)cc1)N(c1cc(C)c3nnc(C)n3c1)C2=O (stereo not drawn) [Example 87, 4-(4-chlorophenyl)-5-(3,8-dimethyl-[1,2,4]triazolo[4,3-a]pyridin-6-yl)-3-ethyl-1-(2-methoxyethyl)-4,5-dihydropyrrolo[3,4-c]pyrazol-6(1H)-one]
- IC (total growth inhibition) (K-562 cells): > 10 µM
- IC50 (His-Brd2(60-472)): 72 nM
- IC (total growth inhibition) (THP-1 cells): 0.0598 µM
- IC50 [1]: 9800 nM
- IC (total growth inhibition) (MV-4-11 cells): 0.0288 µM

SMILES: CCc1nn(-c2ccnn2C)c2c1C(c1ccc(Cl)cc1)N(c1cc(C)c(=O)n(C)c1)C2=O (stereo not drawn) [Example 89, 4-(4-chlorophenyl)-5-(1,5-dimethyl-6-oxo-1,6-dihydropyridin-3-yl)-3-ethyl-1-(1-methyl-1H-pyrazol-5-yl)-4,5-dihydropyrrolo[3,4-c]pyrazol-6(1H)-one]
- IC (total growth inhibition) (K-562 cells): > 10 µM
- IC50 (His-Brd2(60-472)): 60 nM
- IC (total growth inhibition) (THP-1 cells): 0.119 µM
- IC50 [1]: 2500 nM
- IC (total growth inhibition) (MV-4-11 cells): 0.0673 µM

SMILES: Cc1nn(-c2ccnn2C)c2c1C(c1ccc(Cl)cc1)N(c1cc(C)c3nnc(C)n3c1)C2=O (stereo not drawn) [Example 90, 4-(4-chlorophenyl)-5-(3,8-dimethyl-[1,2,4]triazolo[4,3-a]pyridin-6-yl)-3-methyl-1-(1-methyl-1H-pyrazol-5-yl)-4,5-dihydropyrrolo[3,4-c]pyrazol-6(1H)-one]
- IC (total growth inhibition) (K-562 cells): > 10 µM
- IC50 (His-Brd2(60-472)): 28 nM
- IC (total growth inhibition) (THP-1 cells): 0.115 µM
- IC50 [1]: > 37000 nM
- IC (total growth inhibition) (MV-4-11 cells): 0.0436 µM

SMILES: Cc1cc(N2C(=O)c3nn(C4CC4)c(C)c3C2c2ccc(Cl)cc2)cn2c(C)nnc12 (stereo not drawn) [Example 93, 4-(4-chlorophenyl)-2-cyclopropyl-5-(3,8-dimethyl-[1,2,4]triazolo[4,3-a]pyridin-6-yl)-3-methyl-4,5-dihydropyrrolo[3,4-c]pyrazol-6(2H)-one]
- IC (total growth inhibition) (K-562 cells): > 10 µM
- IC50 (His-Brd2(60-472)): 45 nM
- IC (total growth inhibition) (THP-1 cells): 0.0518 µM
- IC50 [1]: 3100 nM
- IC (total growth inhibition) (MV-4-11 cells): 0.0226 µM

SMILES: Cc1nn(C2CCC2)c2c1C(c1ccc(Cl)cc1)N(c1cc(C)c(=O)n(C)c1)C2=O (stereo not drawn) [Example 94, 4-(4-chlorophenyl)-1-cyclobutyl-5-(1,5-dimethyl-6-oxo-1,6-dihydropyridin-3-yl)-3-methyl-4,5-dihydropyrrolo[3,4-c]pyrazol-6(1H)-one]
- IC (total growth inhibition) (K-562 cells): > 10 µM
- IC50 (His-Brd2(60-472)): 25 nM
- IC (total growth inhibition) (THP-1 cells): 0.0765 µM
- IC50 [1]: 650 nM
- IC (total growth inhibition) (MV-4-11 cells): 0.0318 µM

SMILES: Cc1nn(C2CC2)c2c1C(c1ccc(OC(F)(F)F)cc1)N(c1cc(C)c(=O)n(C)c1)C2=O (stereo not drawn) [Example 95, 1-cyclopropyl-5-(1,5-dimethyl-6-oxo-1,6-dihydropyridin-3-yl)-3-methyl-4-(4-(trifluoromethoxy)phenyl)-4,5-dihydropyrrolo[3,4-c]pyrazol-6(1H)-one]
- IC (total growth inhibition) (K-562 cells): > 10 µM
- IC50 (His-Brd2(60-472)): 63 nM
- IC (total growth inhibition) (THP-1 cells): 0.411 µM
- IC50 [1]: 7700 nM
- IC (total growth inhibition) (MV-4-11 cells): 0.27 µM

SMILES: Cc1nn(C2CC2)c2c1C(c1cccc(C(F)(F)F)c1)N(c1cc(C)c(=O)n(C)c1)C2=O (stereo not drawn) [Example 96, 1-cyclopropyl-5-(1,5-dimethyl-6-oxo-1,6-dihydropyridin-3-yl)-3-methyl-4-(3-(trifluoromethyl)phenyl)-4,5-dihydropyrrolo[3,4-c]pyrazol-6(1H)-one]
- IC (total growth inhibition) (K-562 cells): > 10 µM
- IC50 (His-Brd2(60-472)): 660 nM
- IC (total growth inhibition) (THP-1 cells): 2.55 µM
- IC50 [1]: 18000 nM
- IC (total growth inhibition) (MV-4-11 cells): 1.24 µM

SMILES: Cc1nn(C2CC2)c2c1C(c1ccc(C(F)(F)F)cc1)N(c1cc(C)c(=O)n(C)c1)C2=O (stereo not drawn) [Example 97, 1-cyclopropyl-5-(1,5-dimethyl-6-oxo-1,6-dihydropyridin-3-yl)-3-methyl-4-(4-(trifluoromethyl)phenyl)-4,5-dihydropyrrolo[3,4-c]pyrazol-6(1H)-one]
- IC (total growth inhibition) (K-562 cells): > 10 µM
- IC50 (His-Brd2(60-472)): 88 nM
- IC (total growth inhibition) (THP-1 cells): 0.274 µM
- IC50 [1]: 3600 nM
- IC (total growth inhibition) (MV-4-11 cells): 0.12 µM

SMILES: COc1ncc(-n2nc(C)c3c2C(=O)N(c2cc(C)c(=O)n(C)c2)[C@H]3c2ccc(Cl)cc2)c(OC)n1 [Example 99, (S)-4-(4-chlorophenyl)-1-(2,4-dimethoxypyrimidin-5-yl)-5-(1,5-dimethyl-6-oxo-1,6-dihydropyridin-3-yl)-3-methyl-4,5-dihydropyrrolo[3,4-c]pyrazol-6(1H)-one]
- IC (total growth inhibition) (K-562 cells): > 10 µM
- IC50 (His-Brd2(60-472)): 6000 nM
- IC (total growth inhibition) (THP-1 cells): > 10 µM
- IC50 [1]: > 37000 nM
- IC (total growth inhibition) (MV-4-11 cells): 4.31 µM

SMILES: COc1ncc(-n2nc(C)c3c2C(=O)N(c2cc(C)c(=O)n(C)c2)[C@@H]3c2ccc(Cl)cc2)c(OC)n1 [Example 100, (R)-4-(4-chlorophenyl)-1-(2,4-dimethoxypyrimidin-5-yl)-5-(1,5-dimethyl-6-oxo-1,6-dihydropyridin-3-yl)-3-methyl-4,5-dihydropyrrolo[3,4-c]pyrazol-6(1H)-one]
- IC (total growth inhibition) (K-562 cells): > 10 µM
- IC50 (His-Brd2(60-472)): 28 nM
- IC (total growth inhibition) (THP-1 cells): 0.153 µM
- IC50 [1]: 4200 nM
- IC (total growth inhibition) (MV-4-11 cells): 0.0582 µM

SMILES: COc1ncccc1-n1nc(C)c2c1C(=O)N(c1cc(C)c3nnc(C)n3c1)C2c1ccc(Cl)cc1 (stereo not drawn) [Example 101, 4-(4-chlorophenyl)-5-(3,8-dimethyl-[1,2,4]triazolo[4,3-a]pyridin-6-yl)-1-(2-methoxypyridin-3-yl)-3-methyl-4,5-dihydropyrrolo[3,4-c]pyrazol-6(1H)-one]
- IC (total growth inhibition) (K-562 cells): > 10 µM
- IC50 (His-Brd2(60-472)): 43 nM
- IC (total growth inhibition) (THP-1 cells): 0.102 µM
- IC50 [1]: 19000 nM
- IC (total growth inhibition) (MV-4-11 cells): 0.0447 µM
